# Laboratory results published in patent US6429191B1, “Treatment of hearing impairments” (Genentech, Inc., priority 1996, dated 2002).
# Where two headings read alike, the source gives them in different places.
# Tests used:
# [1] = tested on: SGNs in cochlear explants; test: Protective effects in cochlear explant cultures co-treated with ototoxins, SGN peripheral axon count; type: cell-based, rat; conditions: for protective effects on SGNs against ototoxins: growth factor added together with ototoxin, data not shown; for neuroprotection of SGNs against sodium salicylate and gentamicin: 20 ng/ml neurotrophin, sodium salicylate 5 mM or gentamicin 3 mM
# Description: (§1) FIGS. 9A and 9B depict quantitation of protective effects of NT-4/5 on SGNs (FIG. 9A) and hair cells (FIG. 9B). […] The same experimental procedures were performed as in FIGS. 6A and 6B. The error bars are SEM and ** indicate that as compared to the cultures containing an ototoxin alone, p<0.001. “Con” indicates control culture.
# FIG. 10 depicts quantitation of neuroprotection of different neurotrophins against sodium salicylate (Sal) and gentamicin (Gent). […] Sodium salicylate (5 mM) or gentamicin (3 mM) was added either alone or in combination with one of the neurotrophins (20 ng/ml) to 2-day cultures and the cultures were kept for 2 more days. The same experimental procedures were performed as in FIGS. 6A and 6B. […] The error bars are SEM and ** indicate that as compared to the cultures containing an ototoxin alone, p<0.001.
# (§2) The protective effect of neurotrophins against ototoxicity was determined in the organotypic cultures of postnatal cochlear explants described in the Examples above. […] A human recombinant neurotrophin (Genentech, Inc.) or other growth factors, alone or in combination, was added to the culture at the same time the ototoxin was added.
# (§3) Two days after treatment with ototoxins or co-treatment with ototoxins and neurotrophins (or other growth factors), the cochlear explant cultures were fixed in 4% paraformaldehyde in 0.1 M phosphate buffer (pH 7.4) for 30 min, washed in PBS, and subjected to double histochemical staining of the cochlear explant cultures. After incubation with the monoclonal antibody N52 against neurofilament protein (200 kd) in 1% Triton X100 containing 3% normal goat serum (“NGS”) for 2 days at 4° C., the explants were incubated with a Texas red-conjugated goat anti-mouse secondary antibody (1:70; Cappel) at room temperature for 40 min. The preparations were then stained with FITC-conjugated phalloidin (0.5 μg/ml; Sigma) for 45 min, washed in PBS and mounted in Fluoromount-G (Southern Biotechnology Associates, Birmingham, Ala.) which contains an anti-fading agent.
# [2] = tested on: hair cells in cochlear explants; test: Protective effects in cochlear explant cultures co-treated with ototoxins, hair cell count; type: cell-based, rat; conditions: growth factor added together with ototoxin; data not shown
# Description: as §1, §2, §3
# [3] = tested on: spiral ganglion neurons (SGNs); test: Survival of dissociated spiral ganglion neurons in serum-free culture; type: cell-based, rat; conditions: for survival-promoting effect on SGNs: P5 rat SGNs, 2 days, serum-free medium, neurotrophins 0.1-50 ng/ml
# Description: FIG. 1 is a histogram depicting the effects of NT-4/5 on SGN survival. SGNs were prepared from P5 rats, plated and kept for 2 days in serum-free medium in the absence or presence of NT-4/5 at different concentrations. Viable SGNs were identified by labeling with a neurofilament monoclonal antibody (N52), viewed under a Zeiss Axiophot microscope, and counted using a grid ocular reticule covering an area of […]. For each culture, about 10 randomly selected fields were counted. Data were collected from 3 to 5 cultures and normalized as a percentage of the number of viable neurons in the control cultures in each of the experiments. The error bars represent SEM.
# FIG. 2 is a histogram depicting the effects of different neurotrophins on SGN survival. SGNs were prepared from P5 rats and maintained for 2 days in serum-free medium without or with different neurotrophins at different concentrations. Quantitation of viable SGNs was made in the same way as in FIG. 1 and the error bars are SEM. […] Difference between NT-3 and NT-4/5 or BDNF was very significant at all doses (P<0.001). No statistical difference was found between NT-4/5 and BDNF except the dose of 0.1 ng/ml (P<0.01).
# Identical results (not shown) were also obtained with a different neuronal marker, a monoclonal antibody 3A10 (Furley et al., 1990). SGNs were dissociated from postnatal day 5 (P5) rat cochleae and plated in defined serum-free medium. […] The enzyme was inactivated with a mixture of 0.005% soybean trypsin inhibitor (Sigma) and 0.005% DNase (Worthington) before trituration with 0.05% DNase in Eagle's Basal Medium (“BME”). The dissociated cells were preplated on a 35 mm untreated tissue culture dish for 25 min to enrich the neuronal population. Under these experimental procedures, about 10% of the cell population were spiral ganglion neurons (“SGNs”) as determined by immunocytochemistry with a monoclonal antibody (N52; Boehringer) against neurofilaments (200 kd; Boehringer). […] Cells were plated at a density of 80,000/well. In control cultures about 75% of SGNs died after 2 days, presumably due to a lack of growth factors.
# [4] = tested on: spiral ganglion neurons (SGNs); test: Neurotrophin protection of dissociated SGNs against cisplatin neurotoxicity; type: cell-based, rat; conditions: for protective effects against cisplatin neurotoxicity / protection of SGNs compared with cultures containing cisplatin alone: 10 ng/ml neurotrophin; for protective effects against cisplatin neurotoxicity: cisplatin 1, 2 or 4 μg/ml; for protection of SGNs compared with cultures containing cisplatin alone: 4 μg/ml cisplatin
# Excerpt: Quantitation of viable SGNs was done in the same way as in FIG. 1. The error bars stand for SEM. […] While no difference was found between cultures containing NT-4/5 and cultures containing BDNF, the difference between cultures containing NT-3 and cultures containing NT-4/5 or BDNF was statistically very significant (P<0.001).
# trkB receptor = trkB receptor (Homo sapiens, UniProt Q16620); conditions: naturally occurring NGF vs BDNF; cited from earlier work
# trkC receptor = trkC receptor (Homo sapiens, UniProt Q16288); conditions: cited from earlier work
# [5] = cited from earlier work
# [6] = tested on: SGNs in cochlear explants
# Description: (§4) Cochlear explants were prepared from P3 rats, embedded and cultured in 3-D collagen gels. Ototoxins were added at various concentrations to 2-day cultures for 2 more days. After the preparations were processed for double histochemistry with N52 and phalloidin, they were examined under Zeiss Axiophot epifluorescent microscope. For each culture, SGN peripheral axons and hair cells were counted from 3-4 randomly selected fields in the middle turn of each culture. Data were collected from 6 or more cultures for each of the experimental groups. Two-tailed, unpaired t-test was used for statistical analysis. […] The error bars are SEM and double asterisks (**) indicate significant differences between experimental and control cultures (p<0.001).
# (§5) An organotype cochlear explant culture that utilizes a 3-D collagen matrix cultures and maintains its normal, in vivo architecture. Cochleae were dissected from postnatal day 3 (P3) Wistar rats. After spiral ligament and stria vascularis tissues were removed, the remaining cochlear tissue containing the spiral ganglion and organ of Corti was cut into 3 pieces according to the basal, middle and apical turns. The explants were then embedded in a three-dimensional (“3-D”) collagen matrix of a droplet (20 μl) of freshly made collagen gel which was placed on the bottom of a 35 mm Nunc tissue culture dish, modified from what described previously (Gao et al., 1991) as follows. Rat tail collagen (type I, Collaborative Research) was mixed with 10× BME medium and 2% sodium carbonate in a ratio of 10:1:1 and placed on ice just before use. The collagen matrix containing the cochlear explants were incubated at 37° C. for 5-10 min until it gelled. The matrix was then cultured in defined serum-free medium using sufficient medium to cover the explants (2 ml of serum-free medium (BME plus serum-free supplement (Sigma 1-1884), 1% BSA, 2 mM glutamine, and 5 mg/ml glucose; containing no antibiotics). The culture medium was changed every other day thereafter.
# (§6) While the neurofilament antibody (Texas red-mediated) labeled the somata and peripheral axons of SGNs, the phalloidin-FITC conjugate stained the stereocillia bundles of hair cells. Three cultures per experimental paradigm were studied in each individual experiment. Three or more separate repetitions of the experiment were conducted to validate the ototoxic effect.
# (§7) As the density of the radial peripheral axons of SGNs appeared to be a reliable index of the number of surviving SGNs, the number of the peripheral axons of SGNs from a given length (100 μm) in the middle turn of the cochlea was counted for different experimental groups and plotted in FIG. 6A. Phalloidin-labeled hair cells were also counted in the same way (FIG. 6B).
# (§8) Quantitative analysis of the numbers of peripheral axons of SGNs and hair cells in the cochlear explants were performed. The N52 and phalloidin double-labeled cochlear explants were examined under a Zeiss Axiophot epifluorescent microscope. As the density of radial peripheral axons of SGNs reflects the number of surviving SGNs, the number of these axons was counted using a grid ocular reticule covering a distance of 100 μm in the middle turns only. The surviving hair cells were counted in a similar manner. […] For each culture, SGN peripheral axons and hair cells were counted from 3-4 randomly selected fields in the middle turn of each culture.
# [7] = tested on: hair cells in cochlear explants
# Description: as §4, §5, §6, §7, §8
# Chain of trkC receptor (Q16288 32-839): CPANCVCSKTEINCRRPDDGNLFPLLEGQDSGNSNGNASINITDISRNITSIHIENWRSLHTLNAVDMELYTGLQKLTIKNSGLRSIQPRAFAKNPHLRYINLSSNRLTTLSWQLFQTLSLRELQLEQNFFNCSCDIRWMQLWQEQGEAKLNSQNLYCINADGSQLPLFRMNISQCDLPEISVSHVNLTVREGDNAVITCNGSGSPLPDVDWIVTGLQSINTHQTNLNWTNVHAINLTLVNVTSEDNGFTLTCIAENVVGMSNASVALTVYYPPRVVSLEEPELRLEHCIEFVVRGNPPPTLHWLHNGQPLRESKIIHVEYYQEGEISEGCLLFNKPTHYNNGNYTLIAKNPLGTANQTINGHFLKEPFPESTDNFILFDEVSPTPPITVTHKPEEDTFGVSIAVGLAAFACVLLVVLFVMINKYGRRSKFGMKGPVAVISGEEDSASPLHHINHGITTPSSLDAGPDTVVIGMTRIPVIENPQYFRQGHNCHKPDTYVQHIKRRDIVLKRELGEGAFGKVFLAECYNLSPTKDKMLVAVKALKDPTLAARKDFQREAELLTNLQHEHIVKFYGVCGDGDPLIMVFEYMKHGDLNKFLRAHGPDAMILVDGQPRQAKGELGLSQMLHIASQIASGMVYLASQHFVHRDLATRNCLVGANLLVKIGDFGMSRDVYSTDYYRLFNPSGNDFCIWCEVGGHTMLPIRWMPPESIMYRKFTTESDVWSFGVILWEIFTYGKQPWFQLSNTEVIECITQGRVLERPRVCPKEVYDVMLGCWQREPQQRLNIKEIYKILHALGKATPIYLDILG
# Chain of trkB receptor (Q16620 32-822): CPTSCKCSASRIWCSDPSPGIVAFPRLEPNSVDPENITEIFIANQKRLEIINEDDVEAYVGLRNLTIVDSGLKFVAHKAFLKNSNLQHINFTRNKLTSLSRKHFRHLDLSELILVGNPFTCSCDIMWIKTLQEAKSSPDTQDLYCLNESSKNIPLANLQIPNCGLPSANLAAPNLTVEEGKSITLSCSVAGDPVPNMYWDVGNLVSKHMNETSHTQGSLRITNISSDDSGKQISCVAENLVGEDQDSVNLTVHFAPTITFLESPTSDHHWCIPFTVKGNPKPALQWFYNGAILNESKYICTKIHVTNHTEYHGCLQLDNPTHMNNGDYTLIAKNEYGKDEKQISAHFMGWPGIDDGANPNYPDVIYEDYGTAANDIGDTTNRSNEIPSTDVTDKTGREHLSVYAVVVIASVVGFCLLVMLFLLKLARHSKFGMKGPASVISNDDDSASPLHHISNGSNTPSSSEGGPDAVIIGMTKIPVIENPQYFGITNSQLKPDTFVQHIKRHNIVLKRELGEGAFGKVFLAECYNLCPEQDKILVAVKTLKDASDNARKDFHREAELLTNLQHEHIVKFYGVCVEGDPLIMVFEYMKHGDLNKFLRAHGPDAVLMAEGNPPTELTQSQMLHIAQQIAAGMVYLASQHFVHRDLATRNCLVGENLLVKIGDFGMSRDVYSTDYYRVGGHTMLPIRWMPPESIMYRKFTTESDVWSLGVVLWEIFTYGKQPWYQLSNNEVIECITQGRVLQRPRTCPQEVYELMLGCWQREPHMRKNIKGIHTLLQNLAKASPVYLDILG
compound,measurement,setting,value
insulin-like growth factor-1 [IGF-1],protective effects on SGNs against ototoxins,[1],did not show detectable protective effects
same,protective effects on hair cells against ototoxins,[2],did not show detectable protective effects
nerve growth factor [NGF],survival-promoting effect on SGNs,[3],no detectable effects
same,protective effects against cisplatin neurotoxicity,[4],did not show any protective effects
same,neuroprotection of SGNs against sodium salicylate and gentamicin,[1],did not show any detectable protection
same,KD at trkB relative to BDNF (fold lower),trkB receptor,500-1000 fold
same,KD at trkC relative to NT-3 (fold lower),trkC receptor; naturally occurring NGF vs NT-3,500-1000 fold
transforming growth factor-β1 [TGF-β1],survival-promoting effect on SGNs,[3],No survival-promoting effects
same,protective effects on SGNs against ototoxins,[1],did not show detectable protective effects
same,protective effects on hair cells against ototoxins,[2],did not show detectable protective effects
basic fibroblast growth factor [βFGF],survival-promoting effect on SGNs,[3],No survival-promoting effects
same,protective effects on SGNs against ototoxins,[1],did not show detectable protective effects
same,protective effects on hair cells against ototoxins,[2],did not show detectable protective effects
brain-derived neurotrophic factor [BDNF],survival-promoting effect on SGNs,[3],very significant survival-promoting effects
same,potency on SGN survival compared with other neurotrophins,[3]; concentrations from 1-50 ng/ml,equal in potency to NT-4/5
same,protection of SGNs compared with cultures containing cisplatin alone,[4],very significant protecting effects
same,protective effects against cisplatin neurotoxicity,[4],Equivalent protective effects
same,neuroprotection of SGNs against sodium salicylate and gentamicin,[1],protective effects on SGNs
[H]/N=C(/N)N[C@H]1[C@H](O)[C@@H](O)[C@H](O[C@@H]2O[C@@H](C)[C@](O)(C=O)[C@H]2O[C@@H]2O[C@@H](CO)[C@H](O)[C@@H](O)[C@@H]2NC)[C@@H](N/C(N)=N\[H])[C@@H]1O [streptomycin],patients developing measurable hearing loss,[5]; 1 gram per day for greater than 1 week,4 to 15%
same,incidence of vestibular impairment,[5]; 1 gram per day,25%
same,patients displaying some vestibular impairment,[5]; 2 grams daily for 60 to 120 days,~75%
platelet-derived growth factor [PDGF],protective effects on SGNs against ototoxins,[1],did not show detectable protective effects
same,protective effects on hair cells against ototoxins,[2],did not show detectable protective effects
transforming growth factor-α [TGF-α],protective effects on SGNs against ototoxins,[1],did not show detectable protective effects
same,protective effects on hair cells against ototoxins,[2],did not show detectable protective effects
"epidermal growth factor [EGF, growth factor (Collaborative Research)]",survival-promoting effect on SGNs,[3],No survival-promoting effects
same,protective effects on SGNs against ototoxins,[1],did not show detectable protective effects
same,protective effects on hair cells against ototoxins,[2],did not show detectable protective effects
neurotrophin-3 [NT-3],survival-promoting effect on SGNs,[3],significant survival-promoting effect
same,potency on SGN survival compared with other neurotrophins,[3]; all doses (0.1-50 ng/ml),less potent than NT-4/5 or BDNF
same,potency of protection against cisplatin compared with other neurotrophins,[4]; 10 ng/ml,less potent compared to NT-4/5 or BDNF
same,protection of SGNs compared with cultures containing cisplatin alone,[4],very significant protecting effects
same,protective effects against cisplatin neurotoxicity,[4],significant protective effects
same,neuroprotection of SGNs against sodium salicylate and gentamicin,[1],protective effects on SGNs
gentamicin,SGNs remaining intact,[6]; 5 mM,approximately 40%
same,damage to SGNs,[6]; 0.01 to 0.5 mM,not significantly damaged
same,damage to SGNs,[6]; 1-5 mM,started to induce SGN degeneration
same,doses at which damage to SGNs starts,[6]; figure legend FIG. 7A,higher than 1 mM
same,effect on hair cells,[7]; 0.01 to 0.5 mM,a substantial number of hair cells in the cochlea were killed
same,effect on hair cells,[7]; 1-5 mM,eliminated virtually all hair cells
O=C([O-])c1ccccc1O.[Na+] [sodium salicylate],effect on SGNs and their peripheral axons,"[6]; 5 mM, added to 2-day cultures for 2 more days",massive death of SGNs and degeneration of their peripheral axons
same,dosage which starts to induce significant damage to SGNs,[6]; cochlear explant cultures,3 mM
same,"SGN degeneration, dose dependence",[6]; various concentrations,dose dependent
same,effect on hair cells,[7]; 5 mM,all hair cells remained intact
same,hair cell loss,[7]; 10 mM,no significant hair cell loss
R31A: NT-3 with mutation at position R31 to alanine,trkC binding of NT-3 mutant,trkC receptor; compared with NT-3,increased trkC binding
